Laboratory results published in patent US20090131354A1, “miR-126 REGULATED GENES AND PATHWAYS AS TARGETS FOR THERAPEUTIC INTERVENTION” (priority 2007, published 2009).

Assays:
[1] = system: A549 lung cancer cells; test: Dose-dependent inhibition of proliferation (Alamar Blue), A549; type: cell-based, human; conditions: for % proliferation: normalized to mock-transfected cells (0 pM = 100%)
Description: Lipid-based reverse transfections were carried out in triplicate according to a published protocol (Ovcharenko et al., 2005) and the following parameters: Cells (5,000-12,000 per 96 well), 0.1-0.2 μl Lipofectamine™ 2000 (cat. no. 11668-019, Invitrogen Corp., Carlsbad, Calif., USA) in 20 μl OptiMEM (Invitrogen), 30 nM final concentration of miRNA in 100 μl. Electroporation of H226 cells was carried out using the BioRad Gene Pulser Xcell™ instrument (BioRad Laboratories Inc., Hercules, Calif., USA) with the following settings: 5×10^6 cells with 5 μg miRNA in 200 μl OptiMEM (1.6 μM miRNA), square wave pulse at 250 V for 5 ms. Electroporated H226 cells were seeded at 7,000 cells per 96-well in a total volume of 100 μl. All cells except for Calu-3 cells were harvested 72 hours post transfection or electroporation for assessment of cellular proliferation. Calu-3 cells were harvested 10 days post transfection. Proliferation assays were performed using Alamar Blue (Invitrogen) following the manufacturer's instructions. As a control for inhibition of cellular proliferation, siRNA against the motor protein kinesin 11, also known as Eg5, was used. Eg5 is essential for cellular survival of most eukaryotic cells and a lack thereof leads to reduced cell proliferation and cell death (Weil et al., 2002). siEg5 was used in lipid-based transfection following the same experimental parameters that apply to miRNA. The inventors also used a DNA topoisomerase II inhibitor, etoposide, at a final concentration of 10 μM and 50 μM as an internal standard for the potency of miRNAs. Etoposide is an FDA-approved DNA topoisomerase II inhibitor in the treatment of lung cancer. […] Percent (%) proliferation values from the Alamar Blue assay were normalized to values from cells treated with negative control miRNA. Percent proliferation of hsa-miR-126 treated cells relative to cells treated with negative control miRNA (100%) is shown in Table 6 and in FIG. 1.
The inventors determined sensitivity and specificity of hsa-miR-126 by administering hsa-miR-126 or negative control miRNA at increasing concentrations, ranging from 0 pM to 3,000 pM (Table 7, FIG. 2). Delivery of miRNA and assessment of cellular proliferation of A549 and H460 cells were done as described above. Proliferation values from the Alamar Blue assay were normalized to values obtained from mock-transfected cells (0 pM=100% proliferation). Increasing amounts of negative control miRNA (NC) had no effect on cellular proliferation of A549 or H460 cells (Table 7 and FIG. 2). In contrast, the growth-inhibitory phenotype of hsa-miR-126 is dose-dependent and correlates with increasing amounts of hsa-miR-126 (Table 7 and FIG. 2). Hsa-miR-126 induces a specific therapeutic response at concentrations as low as 300 pM.

[2] = system: A549 cells; test: Ingenuity Pathways Analysis of affected cellular pathways; set-up: species or system human
Description: The mis-regulation of gene expression by hsa-miR-126 (Table 1) affects many cellular pathways that represent potential therapeutic targets for the control of cancer and other diseases and disorders. The inventors determined the identity and nature of the cellular genetic pathways affected by the regulatory cascade induced by hsa-miR-126 expression. Cellular pathway analyses were performed using Ingenuity Pathways Analysis (Version 4.0, Ingenuity® Systems, Redwood City, Calif.). Alteration of a given pathway was determined by Fisher's Exact test (Fisher, 1922).

[3] = system: human A549 lung cancer xenografts; test: A549 lung cancer xenograft, cells electroporated before implantation; type: in vivo, NOD/SCID mice
Description: The inventors assessed the growth-inhibitory activity of hsa-miR-126 in human lung cancer xenografts grown in immunodeficient mice. Hsa-miR-126 was delivered into A549 and H460 lung cancer cells via electroporation using the Gene Pulser Xcell™ (BioRad) with the following settings: 15×10^6 cells with 5 μg miRNA in 200 μl OptiMEM, square wave pulse at 150 V for 10 ms. Electroporated cells (5×10^6) were mixed with BD Matrigel™, (BD Biosciences; San Jose, Calif., USA; cat. no. 356237) in a 1:1 ratio and injected subcutaneously into the flank of NOD/SCID mice (Charles River Laboratories, Inc.; Wilmington, Mass., USA). As a negative control, A549 and H460 cells were electroporated with negative control (NC) miRNA (Pre-miR™ microRNA Precursor Molecule-Negative Control #2; Ambion cat. no. AM17111) as described above. To assess the anti-oncogenic activity of hsa-miR-126, six animals were injected with A459 cells and six animals were injected with H460 cells. NC miRNA-treated cells were injected into the opposite flank of the same animal to control for animal-to-animal variability. Once tumors reached a measurable size (A549 at 7 days post injection; H460 at 5 days post injection), the length and width of tumors were determined every day for up to 11 days. Tumor volumes were calculated using the formula, Volume=length X width X width/2, in which the length is greater than the width. For animals carrying A549 xenografts, tumor volumes derived from NC-treated cells and hsa-miR-126-treated cells were averaged and plotted over time (FIG. 4). The p value, indicating statistical significance, is shown for values obtained on day 18 (p=0.0125).

Question: How did the “growth-inhibitory phenotype, dose dependence” value ([1]; A549 and H460, 0 pM to 3,000 pM) turn out when “hsa-miR-126 (UCGUACCGUGAGUAAUAAUGC; synthetic pre-miR form, further chemistry not given here) [Synthetic hsa-miR-126 (Pre-miR™-hsa-miR-126, Ambion cat. no. AM17100)]” was run?
Answer: dose-dependent

Question: And the “concentration inducing a specific therapeutic response” value ([1]; A549 and H460, 0 pM to 3,000 pM tested)?
Answer: ≥ 300 pM

Question: What about the “% proliferation” value ([1]; A549 cells, 3 pM miRNA) of the same substance?
Answer: 95.40%

Question: What about the “% proliferation” value ([1]; A549 cells, 30 pM miRNA) of the same substance?
Answer: 92.87%

Question: And the “% proliferation” value ([1]; A549 cells, 300 pM miRNA)?
Answer: 80.93%

Question: What about the “% proliferation” value ([1]; A549 cells, 3,000 pM miRNA) of the same substance?
Answer: 74.50%

Question: What about the “Number of Genes” value ([2]; pathway: Cancer, Cellular Movement, Tumor Morphology) of the same substance?
Answer: 23

Question: What about the “Number of Genes” value ([2]; pathway: Carbohydrate Metabolism, Connective Tissue Disorders, Inflammatory Disease) of the same substance?
Answer: 15

Question: And the “Number of Genes” value ([2]; pathway: Cell Cycle, Connective Tissue Development and Function, Immune Response)?
Answer: 1

Question: What about the “Number of Genes” value ([2]; pathway: Cell Cycle, Lipid Metabolism, Molecular Transport) of the same substance?
Answer: 15

Question: And the “Number of Genes” value ([2]; pathway: Cell Death, Cell-To-Cell Signaling and Interaction, Cellular Assembly and Organization)?
Answer: 1

Question: And the “Number of Genes” value ([2]; pathway: Cell Morphology, Cellular Assembly and Organization, Cellular Development)?
Answer: 15

Question: What about the “Number of Genes” value ([2]; pathway: Cell Signaling, Molecular Transport, Neurological Disease) of the same substance?
Answer: 1

Question: What about the “Number of Genes” value ([2]; pathway: Cell-To-Cell Signaling and Interaction, Immune Response, Immune and Lymphatic System Development and Function) of the same substance?
Answer: 13

Question: What about the “Number of Genes” value ([2]; pathway: Cellular Assembly and Organization, Cancer, Skeletal and Muscular Disorders) of the same substance?
Answer: 16

Question: What about the “Number of Genes” value ([2]; pathway: Cellular Function and Maintenance, Cellular Assembly and Organization, Cell Cycle) of the same substance?
Answer: 11

Question: What about the “Number of Genes” value ([2]; pathway: Cellular Growth and Proliferation, Skeletal and Muscular System Development and Function, Cancer) of the same substance?
Answer: 16

Question: What about the “Number of Genes” value ([2]; pathway: Cellular Movement, Cellular Assembly and Organization, Drug Metabolism) of the same substance?
Answer: 16

Question: What about the “Number of Genes” value ([2]; pathway: Developmental Disorder, Endocrine System Disorders, Lipid Metabolism) of the same substance?
Answer: 1

Question: And the “Number of Genes” value ([2]; pathway: Immune Response, Cellular Assembly and Organization, Gene Expression)?
Answer: 1

Question: And the “Number of Genes” value ([2]; pathway: Molecular Transport, Protein Trafficking, Cell-To-Cell Signaling and Interaction)?
Answer: 1

Question: And the “tumor size relative to control tumors” value ([3]; A549, day 18, n=6)?
Answer: all animals showed smaller tumors

Question: What about the “tumor growth in vivo” value ([3]; A549 cells electroporated with miRNA before s.c. implantation) of the same substance?
Answer: inhibited tumor growth in vivo

Question: And the “Ki-67 antigen in tumors (histology)” value ([3]; A549 tumors)?
Answer: diminished levels of the Ki-67 antigen
